Laboratory results: ChEMBL document CHEMBL1201862, “PubChem BioAssay data set” (2004)
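Following 48 hours of exposure in 96-well plates, responses at five concentrations were used to interpolate endpoints linearly. At the GI50, growth is halved.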 The source made the active and inactive calls. Rule as the data show it: active = GI50 up to about 1.1 µM and inactive = higher.

How the values were obtained:
Experiment in all cases: inhibition of tumour cell growth, NCI panel, 48 h
NCI/ADR-RES = test system: NCI/ADR-RES
MDA-MB-231 = test system: MDA-MB-231
SNB-19 = test system: SNB-19
OVCAR-8 = test system: OVCAR-8
SF-268 = test system: SF-268
PC-3 = test system: PC-3
DU-145 = test system: DU-145
MOLT-4 = test system: MOLT-4
NCI-H460 = test system: NCI-H460
SR = test system: SR
Malme-3M = test system: Malme-3M
OVCAR-4 = test system: OVCAR-4
CAKI-1 = test system: CAKI-1
MCF7 = test system: MCF7
SK-MEL-5 = test system: SK-MEL-5
UO-31 = test system: UO-31
NCI-H23 = test system: NCI-H23
HL-60 = test system: HL-60
MDA-MB-435 = test system: MDA-MB-435
SF-539 = test system: SF-539
CCRF-CEM = test system: CCRF-CEM
786-0 = test system: 786-0
HCT-116 = test system: HCT-116
SK-MEL-2 = test system: SK-MEL-2
ACHN = test system: ACHN
UACC-257 = test system: UACC-257
TK-10 = test system: TK-10
T47D = test system: T47D
IGROV-1 = test system: IGROV-1
SK-OV-3 = test system: SK-OV-3
BT-549 = test system: BT-549
HOP-62 = test system: HOP-62
RPMI-8226 = test system: RPMI-8226
HOP-92 = test system: HOP-92
U-251 = test system: U-251
HCT-15 = test system: HCT-15
A549 = test system: A549
HCC 2998 = test system: HCC 2998
NCI-H522 = test system: NCI-H522
MDA-N = test system: MDA-N
KM12 = test system: KM12
UACC-62 = test system: UACC-62
Hs-578T = test system: Hs-578T
LOX IMVI = test system: LOX IMVI
K562 = test system: K562
EKVX = test system: EKVX
OVCAR-3 = test system: OVCAR-3
NCI-H226 = test system: NCI-H226
SN12C = test system: SN12C
M14 = test system: M14
SF-295 = test system: SF-295
A498 = test system: A498
OVCAR-5 = test system: OVCAR-5
HT-29 = test system: HT-29
SK-MEL-28 = test system: SK-MEL-28
COLO 205 = test system: COLO 205
SNB-75 = test system: SNB-75
SW-620 = test system: SW-620
RXF 393 = test system: RXF 393

Q: With C=CCOC(=O)c1c(C)[n+]([O-])c2cc(Cl)c(Cl)cc2[n+]1[O-] as the compound, how does the GI50 (NCI/ADR-RES) read?
A: 20.6 µM (inactive)

Q: What about the GI50 (MDA-MB-231) of the same compound?
A: 24 µM (inactive)

Q: And the GI50 (SNB-19)?
A: 74.8 µM (inactive)

Q: And the GI50 (OVCAR-8)?
A: 19.4 µM (inactive)

Q: And the GI50 (SF-268)?
A: 14.7 µM (inactive)

Q: And the GI50 (PC-3)?
A: 31.6 µM (inactive)

Q: And the GI50 (DU-145)?
A: 29.6 µM (inactive)

Q: And the GI50 (MOLT-4)?
A: 15.1 µM (inactive)

Q: What about the GI50 (NCI-H460) of the same compound?
A: 18.7 µM (inactive)

Q: What about the GI50 (SR) of the same compound?
A: 4.54 µM (inactive)

Q: And the GI50 (Malme-3M)?
A: 28.5 µM (inactive)

Q: And the GI50 (OVCAR-4)?
A: 7.23 µM (inactive)

Q: What about the GI50 (CAKI-1) of the same compound?
A: 19.2 µM (inactive)

Q: What about the GI50 (MCF7) of the same compound?
A: 20.5 µM (inactive)

Q: And the GI50 (SK-MEL-5)?
A: 19 µM (inactive)

Q: What about the GI50 (UO-31) of the same compound?
A: 23.3 µM (inactive)

Q: And the GI50 (NCI-H23)?
A: 14.4 µM (inactive)

Q: What about the GI50 (HL-60) of the same compound?
A: 16.6 µM (inactive)

Q: What about the GI50 (MDA-MB-435) of the same compound?
A: 19.8 µM (inactive)

Q: What about the GI50 (SF-539) of the same compound?
A: 21.8 µM (inactive)

Q: What about the GI50 (CCRF-CEM) of the same compound?
A: 17.3 µM (inactive)

Q: What about the GI50 (786-0) of the same compound?
A: 29.4 µM (inactive)

Q: What about the GI50 (HCT-116) of the same compound?
A: 17.8 µM (inactive)

Q: What about the GI50 (SK-MEL-2) of the same compound?
A: 13.6 µM (inactive)

Q: What about the GI50 (ACHN) of the same compound?
A: 23.6 µM (inactive)

Q: What about the GI50 (UACC-257) of the same compound?
A: 18.7 µM (inactive)

Q: And the GI50 (TK-10)?
A: 29.4 µM (inactive)

Q: What about the GI50 (T47D) of the same compound?
A: 18.9 µM (inactive)

Q: What about the GI50 (IGROV-1) of the same compound?
A: 4.62 µM (inactive)

Q: What about the GI50 (SK-OV-3) of the same compound?
A: 28.8 µM (inactive)

Q: What about the GI50 (BT-549) of the same compound?
A: 34.4 µM (inactive)

Q: What about the GI50 (HOP-62) of the same compound?
A: 25.5 µM (inactive)

Q: And the GI50 (RPMI-8226)?
A: 12.4 µM (inactive)

Q: What about the GI50 (HOP-92) of the same compound?
A: 13.7 µM (inactive)

Q: What about the GI50 (U-251) of the same compound?
A: 31.8 µM (inactive)

Q: And the GI50 (HCT-15)?
A: 13.5 µM

Q: What about the GI50 (A549) of the same compound?
A: 23 µM (inactive)

Q: And the GI50 (HCC 2998)?
A: 12.9 µM (inactive)

Q: What about the GI50 (NCI-H522) of the same compound?
A: 12.4 µM (inactive)

Q: What about the GI50 (MDA-N) of the same compound?
A: 20.6 µM (inactive)

Q: What about the GI50 (KM12) of the same compound?
A: 29.7 µM (inactive)

Q: And the GI50 (UACC-62)?
A: 20.2 µM (inactive)

Q: And the GI50 (Hs-578T)?
A: 27.5 µM (inactive)

Q: What about the GI50 (LOX IMVI) of the same compound?
A: 15.5 µM (inactive)

Q: What about the GI50 (K562) of the same compound?
A: 27.9 µM (inactive)

Q: What about the GI50 (EKVX) of the same compound?
A: 18.8 µM (inactive)

Q: And the GI50 (OVCAR-3)?
A: 20.1 µM (inactive)

Q: What about the GI50 (NCI-H226) of the same compound?
A: 19.1 µM (inactive)

Q: What about the GI50 (SN12C) of the same compound?
A: 24.3 µM (inactive)

Q: What about the GI50 (M14) of the same compound?
A: 18.2 µM (inactive)

Q: And the GI50 (SF-295)?
A: 32.6 µM (inactive)

Q: What about the GI50 (A498) of the same compound?
A: 27.5 µM (inactive)

Q: What about the GI50 (OVCAR-5) of the same compound?
A: 30.4 µM (inactive)

Q: What about the GI50 (HT-29) of the same compound?
A: 18.2 µM (inactive)

Q: What about the GI50 (SK-MEL-28) of the same compound?
A: 16.1 µM (inactive)

Q: And the GI50 (COLO 205)?
A: 17.9 µM (inactive)

Q: CN1CCC(CNC(=O)CCCCCCCCC(=O)NCC2(c3ccccc3)CCN(C)CC2)(c2ccccc2)CC1 was tested. Which GI50 (NCI/ADR-RES) did it give?
A: > 100 µM (inactive)

Q: What about the GI50 (MDA-MB-231) of the same compound?
A: > 100 µM (inactive)

Q: And the GI50 (SNB-19)?
A: > 100 µM (inactive)

Q: What about the GI50 (OVCAR-8) of the same compound?
A: > 100 µM (inactive)

Q: What about the GI50 (SNB-75) of the same compound?
A: 44.2 µM (inactive)

Q: And the GI50 (SF-268)?
A: 14.3 µM (inactive)

Q: And the GI50 (PC-3)?
A: > 100 µM (inactive)

Q: And the GI50 (SW-620)?
A: > 100 µM (inactive)

Q: And the GI50 (DU-145)?
A: > 100 µM (inactive)

Q: And the GI50 (MOLT-4)?
A: > 100 µM (inactive)

Q: What about the GI50 (NCI-H460) of the same compound?
A: > 100 µM (inactive)

Q: And the GI50 (SR)?
A: > 100 µM (inactive)

Q: What about the GI50 (Malme-3M) of the same compound?
A: > 100 µM (inactive)

Q: And the GI50 (OVCAR-4)?
A: > 100 µM (inactive)

Q: What about the GI50 (MCF7) of the same compound?
A: > 100 µM (inactive)

Q: What about the GI50 (SK-MEL-5) of the same compound?
A: > 100 µM (inactive)

Q: And the GI50 (UO-31)?
A: > 100 µM (inactive)

Q: What about the GI50 (HL-60) of the same compound?
A: > 100 µM (inactive)

Q: What about the GI50 (MDA-MB-435) of the same compound?
A: > 100 µM (inactive)

Q: And the GI50 (SF-539)?
A: 15 µM (inactive)

Q: And the GI50 (CCRF-CEM)?
A: 84.7 µM (inactive)

Q: What about the GI50 (786-0) of the same compound?
A: 52.4 µM (inactive)

Q: What about the GI50 (HCT-116) of the same compound?
A: 60.1 µM (inactive)

Q: What about the GI50 (SK-MEL-2) of the same compound?
A: > 100 µM (inactive)

Q: What about the GI50 (ACHN) of the same compound?
A: > 100 µM (inactive)

Q: What about the GI50 (UACC-257) of the same compound?
A: 38.8 µM (inactive)

Q: And the GI50 (TK-10)?
A: > 100 µM (inactive)

Q: What about the GI50 (T47D) of the same compound?
A: 30.7 µM (inactive)

Q: And the GI50 (IGROV-1)?
A: > 100 µM (inactive)

Q: And the GI50 (SK-OV-3)?
A: > 100 µM (inactive)

Q: And the GI50 (BT-549)?
A: > 100 µM (inactive)

Q: What about the GI50 (HOP-62) of the same compound?
A: > 100 µM (inactive)

Q: What about the GI50 (RPMI-8226) of the same compound?
A: > 100 µM (inactive)

Q: And the GI50 (U-251)?
A: > 100 µM (inactive)

Q: And the GI50 (HCT-15)?
A: > 100 µM

Q: And the GI50 (A549)?
A: > 100 µM (inactive)

Q: And the GI50 (HCC 2998)?
A: > 100 µM (inactive)

Q: What about the GI50 (RXF 393) of the same compound?
A: > 100 µM (inactive)

Q: And the GI50 (NCI-H522)?
A: > 100 µM (inactive)

Q: And the GI50 (MDA-N)?
A: > 100 µM (inactive)

Q: What about the GI50 (KM12) of the same compound?
A: > 100 µM (inactive)

Q: And the GI50 (UACC-62)?
A: > 100 µM (inactive)

Q: And the GI50 (Hs-578T)?
A: 84.1 µM (inactive)

Q: And the GI50 (LOX IMVI)?
A: > 100 µM (inactive)

Q: And the GI50 (K562)?
A: 77.1 µM (inactive)

Q: What about the GI50 (EKVX) of the same compound?
A: 8.22 µM (inactive)

Q: What about the GI50 (OVCAR-3) of the same compound?
A: > 100 µM (inactive)

Q: What about the GI50 (NCI-H226) of the same compound?
A: > 100 µM (inactive)

Q: And the GI50 (SN12C)?
A: > 100 µM (inactive)

Q: And the GI50 (M14)?
A: 57.3 µM (inactive)

Q: And the GI50 (SF-295)?
A: > 100 µM (inactive)

Q: And the GI50 (A498)?
A: > 100 µM (inactive)

Q: And the GI50 (OVCAR-5)?
A: > 100 µM (inactive)

Q: What about the GI50 (HT-29) of the same compound?
A: 45.5 µM (inactive)

Q: And the GI50 (SK-MEL-28)?
A: > 100 µM (inactive)

Q: What about the GI50 (COLO 205) of the same compound?
A: 69.7 µM (inactive)
